Source: EP0907364B1, “SUSTAINED RELEASE PHARMACEUTICAL COMPOSITIONS COMPRISING A DIBENZOTHIAZEPINE DERIVATIVE” (AstraZeneca AB, priority 1996, dated 1997)
≈ marks a conversion by molar mass, not a printed value.

Experiment: physchem
Details: 20 °C, water, thermodynamic from solid

In the case of OCCOCCN1CCN(C2=Nc3ccccc3Sc3ccccc32)CC1 [11-[4-[2-(2-hydroxyethoxy)ethyl]-1-piperazinyl]dibenzo[b,f][1,4]-thiazepine], the solubility thermodynamic is reported as 3290 µg/mL (≈ 8.58 mM).
